Measurements published in EP1581477B1, “CYCLOALKENE DICARBOXYLIC ACID COMPOUNDS AS ANTI-INFLAMMATORY, IMMUNOMODULATORY AND ANTI-PROLIFERATORY AGENTS” (4SC AG, priority 2002, dated 2004).

Molecular target: T1, human DHODH (Homo sapiens, UniProt Q02127)
T1 construct: Prof; M. Löffler, Marburg, Germany (gift)
Assay: Inhibition assay of DHODH activity (spectrophotometric, 2,6-dichloroindophenol reduction)
Format: biochemical
Settings: recombinant human DHODH; 50 mM TrisHCl, pH 8,0, 30°C; absorption at 600 nm
Procedure: 3. Inhibition Assay of DHODH activity
The standard assay mixture contained 50 µM decyclo ubichinone, 100 µM dihydroorotate, 60 µM 2,6-dichloroindophenol, as well as 20 mU DHODH The volume activity of the recombinant enzyme used was 30 U/ml. Measurements were conducted in 50 mM TrisHCl (150 mM KCI, 0,1% Triton X-100, pH 8,0) at 30°C in a final volume of 1 ml. The components were mixed, and the reaction was started by adding dihydroorotate. The course of reaction was followed by spectrophotometrically measuring the decrease in absorption at 600 nm for 2 min.
Inhibitory studies were conducted in a standard assay with additional variable amounts of inhibitor.
These investigations were carried out with recombinant human as well as with recombinant murine DHODH provided by Prof. M. Löffler, Marburg, Germany [M. Löffler, Chem. Biol. Interact. 124, (2000), 61-76].

T1 sequence (Q02127 whole entry): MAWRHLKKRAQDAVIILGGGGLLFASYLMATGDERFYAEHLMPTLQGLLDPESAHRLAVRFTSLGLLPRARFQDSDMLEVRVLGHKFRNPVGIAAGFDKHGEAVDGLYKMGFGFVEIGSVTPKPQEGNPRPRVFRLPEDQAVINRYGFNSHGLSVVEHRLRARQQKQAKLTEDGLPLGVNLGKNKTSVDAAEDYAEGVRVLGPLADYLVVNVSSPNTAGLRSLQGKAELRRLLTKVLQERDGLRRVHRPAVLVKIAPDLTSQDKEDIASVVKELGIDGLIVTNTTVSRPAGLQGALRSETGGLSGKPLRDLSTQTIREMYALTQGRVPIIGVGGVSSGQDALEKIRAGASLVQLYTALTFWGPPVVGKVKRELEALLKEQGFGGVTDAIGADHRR

Compound | IC50 [nM]
2-(1',3'di-methoxy-3,5-difluoro-biphenyl-4-ylcarbamoyl)-3-hydroxy-cyclopent-1-enecarboxylic acid [Example 9] | < 5000
2-(1',3'di-methoxy-3,5-difluoro-biphenyl-4-ylcarbamoyl)-5-hydroxy-cyclopent-1-enecarboxylic acid [Example 10] | < 5000
COc1cccc(-c2ccc(NC(=O)C3=C(C(=O)O)C(C(=O)O)CC3)c(F)c2)c1 (stereo not drawn) [Example 1, 3-(3-Fluoro-3'-methoxy-biphenyl-4-ylcarbamoyl)-cyclopent-2-ene-1,2-dicarboxylic acid] | > 5000
COc1cccc(-c2ccc(NC(=O)C3=C(C(=O)O)CCC3C(=O)O)c(F)c2)c1 (stereo not drawn) [Example 2, 2-(3-Fluoro-3'-methoxy-biphenyl-4-ylcarbamoyl)-cyclopent-1-ene-1,3-dicarboxylic acid] | > 5000
COC(=O)C1=C(C(=O)Nc2ccc(-c3cccc(OC)c3)cc2F)CCC1 [Example 3, 2-(3-Fluoro-3'-methoxy-biphenyl-4-ylcarbamoyl)-cyclopent-1-enecarboxylic acid methyl ester] | > 5000
O=C(O)C1=C(C(=O)Nc2c(F)c(F)c(-c3cccc(OC(F)(F)F)c3)c(F)c2F)C(O)CC1 (stereo not drawn) [Example 5, 3-Hydroxy-2-(2,3,5,6-tetrafluoro-3'-trifluoromethoxy-biphenyl-4-ylcarbamoyl)-cyclopent-1-enecarboxylic acid] | < 1000
O=C(O)C1=C(C(=O)Nc2c(F)c(F)c(-c3cccc(OC(F)(F)F)c3)c(F)c2F)CCC1O (stereo not drawn) [Example 6, 5-Hydroxy-2-(2,3,5,6-tetrafluoro-3'-trifluoromethoxy-biphenyl-4-ylcarbamoyl)-cyclopent-1-enecarboxylic acid] | < 1000
CCOc1cccc(-c2cc(F)c(NC(=O)C3=C(C(=O)O)CCC3O)c(F)c2)c1 (stereo not drawn) [Example 7, 2-(3'-Ethoxy-3,5-difluoro-biphenyl-4-ylcarbamoyl)-3-hydroxy-cyclopent-1-enecarboxylic acid] | < 1000
CCOc1cccc(-c2cc(F)c(NC(=O)C3=C(C(=O)O)C(O)CC3)c(F)c2)c1 (stereo not drawn) [Example 8, 2-(3'-Ethoxy-3,5-difluoro-biphenyl-4-ylcarbamoyl)-5-hydroxy-cyclopent-1-enecarboxylic acid] | < 1000
O=C(O)C1=C(C(=O)Nc2c(F)cc(-c3ccccc3F)cc2F)C(O)CC1 (stereo not drawn) [Example 11, 3-Hydroxy-2-(3,5,2'-trifluoro-biphenyl-4-ylcarbamoyl)-cyclopent-1-enecarboxylic acid] | < 1000
COc1ccccc1-c1ccc(NC(=O)C2=C(C(=O)O)CCC2O)cc1Cl (stereo not drawn) [Example 13, 2-(2-Chloro-2'-methoxy-biphenyl-4-ylcarbamoyl)-3-hydroxy-cyclopent-1-enecarboxylic acid] | < 1000
COc1ccccc1-c1ccc(NC(=O)C2=C(C(=O)O)C(O)CC2)cc1Cl (stereo not drawn) [Example 14, 2-(2-Chloro-2'-methoxy-biphenyl-4-ylcarbamoyl)-5-hydroxy-cyclopent-1-enecarboxylic acid] | < 1000
O=C(O)C1=C(C(=O)Nc2c(F)cc(-c3ccccc3Cl)cc2F)C(O)CC1 (stereo not drawn) [Example 15, 2-(2'-Chloro-3,5-difluoro-biphenyl-4-ylcarbamoyl)-3-hydroxy-cyclopent-1-enecarboxylic acid] | < 1000
O=C(O)C1=C(C(=O)Nc2c(F)cc(-c3ccccc3Cl)cc2F)CCC1O (stereo not drawn) [Example 16, 2-(2'-Chloro-3,5-difluoro-biphenyl-4-ylcarbamoyl)-5-hydroxy-cyclopent-1-enecarboxylic acid] | < 1000
COc1cccc(-c2ccc(NC(=O)C3=C(C(=O)O)CCC3O)c(F)c2)c1 (stereo not drawn) [Example 17, 2-(3-Fluoro-3'-methoxy-biphenyl-4-ylcarbamoyl)-3-hydroxy-cyclopent-1-enecarboxylic acid] | < 1000
